Laboratory results: publication PMC3409642 (Pharmaceutical research, 2012)
Read-outs that look alike come from different tables or passages of the source.

How the values were obtained:
UGT1A9 [1] = molecular target: T1, UGT1A9 (Homo sapiens, UniProt O60656); test: in vitro
T1 sequence (O60656 26-530): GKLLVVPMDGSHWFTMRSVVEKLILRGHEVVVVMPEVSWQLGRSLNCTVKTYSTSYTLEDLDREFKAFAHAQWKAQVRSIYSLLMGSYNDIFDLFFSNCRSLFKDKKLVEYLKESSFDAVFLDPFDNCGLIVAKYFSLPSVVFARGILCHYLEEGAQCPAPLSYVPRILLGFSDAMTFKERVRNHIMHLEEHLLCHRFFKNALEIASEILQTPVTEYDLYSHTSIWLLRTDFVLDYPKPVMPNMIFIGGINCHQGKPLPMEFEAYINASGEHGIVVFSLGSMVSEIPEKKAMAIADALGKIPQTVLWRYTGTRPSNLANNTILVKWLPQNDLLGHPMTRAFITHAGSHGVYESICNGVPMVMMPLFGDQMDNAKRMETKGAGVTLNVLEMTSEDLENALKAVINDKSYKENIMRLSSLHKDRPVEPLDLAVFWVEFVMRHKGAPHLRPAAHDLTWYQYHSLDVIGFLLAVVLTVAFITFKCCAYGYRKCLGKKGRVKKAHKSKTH

UGT1A9 [2] = molecular target: T1, UGT1A9; test: Kinetic profiling of glucuronidation by expressed human UGT1A9; conditions: for Log (CLint) (Actual): log of experimental CLint (μl/mg/min); for Vmax: pH 7.4
UGT1A9 [3] = molecular target: T1, UGT1A9; conditions: for Log (CLint) (Actual): recombinant enzyme
not read [4] = substrate: C=CCc1ccc(O)c(OC)c1; test: not read; conditions: pH 7.4; 37.0 °C
not read [5] = substrate: CN(C)CCc1c[nH]c2cccc(O)c12; test: not read; conditions: pH 7.4; 37.0 °C
not read [6] = substrate: COC(=O)c1ccc(O)cc1; test: not read; conditions: pH 7.4; 37.0 °C
not read [7] = substrate: Cc1ccc2oc(=O)cc(O)c2c1; test: not read; conditions: pH 7.4; 37.0 °C
not read [8] = substrate: Oc1ccc(-c2ccccc2)cc1; test: not read; conditions: pH 7.4; 37.0 °C

For CC(C)c1ccc(O)cc1 [compound 117, 4-Isopropylphenol], the Km (UGT1A9 [1]; pH 7.4) was 36.4 µM and the “Log (CLint) (Actual)” value (UGT1A9 [2]) was 1.78.

With Oc1cccc2ccccc12 [compound 21, Naphthol] the “CLint (Vmax/Km)” value (UGT1A9 [3]; human, pH 7.4) was 288 µL/min/mg, the “Log (CLint) (Actual)” value (UGT1A9 [3]; human, pH 7.4) was 2.46 and the Vmax (UGT1A9 [2]) was 72.1 pmol/mg/min.

For Cc1cc(O)c2c(c1)C(=O)c1cc(O)cc(O)c1C2=O [compound 18, Emodin], the “CLint (Vmax/Km)” value (UGT1A9 [3]; human, pH 7.4) was 1020 µL/min/mg, the “Log (CLint) (Actual)” value (UGT1A9 [3]; human, pH 7.4) was 3.01 and the Km (UGT1A9 [1]; pH 7.4, Km) was 2.87 µM.

In the case of CCCCc1ccc(O)cc1 [compound 110, 4-n-Butylphenol], the “Log (CLint) (Actual)” value (UGT1A9 [3]; human, pH 7.4) is reported as 1.18 and the Km (UGT1A9 [1]; pH 7.4, Km) is reported as 43.1 µM.

In the case of O=c1c(-c2ccc(O)cc2)coc2cc(O)cc(O)c12 [compound 105, Genistein], the “CLint (Vmax/Km)” value (UGT1A9 [3]; human, pH 7.4) is reported as 617 µL/min/mg, the Km (UGT1A9 [1]; pH 7.4) is reported as 2.09 µM and the “Log (CLint) (Actual)” value (UGT1A9 [2]) is reported as 2.79.

O=c1cc(-c2ccccc2)oc2cc(O)c(O)c(O)c12 [compound 51, Baicalein] was tested, and the “Log (CLint) (Actual)” value (UGT1A9 [3]; human, pH 7.4) was 3.88 and the Km (UGT1A9 [1]; pH 7.4, Km) was 0.7 µM.

With CCC(C)c1ccc(O)cc1 (centres unmarked) [compound 127, 4-sec-Butylphenol] the “CLint (Vmax/Km)” value (UGT1A9 [3]; human, pH 7.4) was 37 µL/min/mg, the Km (UGT1A9 [1]; pH 7.4, Km) was 87.5 µM and the “Log (CLint) (Actual)” value (UGT1A9 [2]) was 1.57.

For COc1cc(/C=C/C(=O)O)ccc1O [compound 95, Ferulic Acid], the “CLint (Vmax/Km)” value (UGT1A9 [3]) was 0.4 µL/min/mg, the “Log (CLint) (Actual)” value (UGT1A9 [3]; human) was 0.30 and the Km (UGT1A9 [3]; pH 7.4) was 884 µM. For the same molecule, the Vmax (UGT1A9 [2]) was 372 pmol/mg/min.

O=c1c(O)c(-c2ccccc2)oc2cc(O)cc(O)c12 [85.a, Galangin] was tested, and the Km (UGT1A9 [1]; pH 7.4, Km) was 0.68 µM, the “Log (CLint) (Actual)” value (UGT1A9 [2]) was 4.04 and the “Log (CLint) (Actual)” value (UGT1A9 [2]; listed as 85.b) was 3.68.

In the case of CCc1c2c(nc3ccc(O)cc13)-c1cc3c(c(=O)n1C2)COC(=O)[C@]3(O)CC [compound 144, SN-38], the “CLint (Vmax/Km)” value (UGT1A9 [3]) is reported as 3 µL/min/mg and the “Log (CLint) (Actual)” value (UGT1A9 [3]; human) is reported as 0.44.

O=c1cc(-c2ccc(O)cc2)oc2cc(O)cc(O)c12 [compound 50, Apigenin] was tested, and the “Log (CLint) (Actual)” value (UGT1A9 [3]; human, pH 7.4) was 3.23.

B1: human UGT1A9 (Homo sapiens) (protein)
chain: GKLLVVPMDGSHWFTMRSVVEKLILRGHEVVVVMPEVSWQLGRSLNCTVKTYSTSYTLEDLDREFKAFAHAQWKAQVRSIYSLLMGSYNDIFDLFFSNCRSLFKDKKLVEYLKESSFDAVFLDPFDNCGLIVAKYFSLPSVVFARGILCHYLEEGAQCPAPLSYVPRILLGFSDAMTFKERVRNHIMHLEEHLLCHRFFKNALEIASEILQTPVTEYDLYSHTSIWLLRTDFVLDYPKPVMPNMIFIGGINCHQGKPLPMEFEAYINASGEHGIVVFSLGSMVSEIPEKKAMAIADALGKIPQTVLWRYTGTRPSNLANNTILVKWLPQNDLLGHPMTRAFITHAGSHGVYESICNGVPMVMMPLFGDQMDNAKRMETKGAGVTLNVLEMTSEDLENALKAVINDKSYKENIMRLSSLHKDRPVEPLDLAVFWVEFVMRHKGAPHLRPAAHDLTWYQYHSLDVIGFLLAVVLTVAFITFKCCAYGYRKCLGKKGRVKKAHKSKTH
For B1, the Km (not read [4]) was 25 µM, the Vmax (not read [4]) was 0.001 µmol/min/mg and the Vmax/Km (not read [4]) was 40 µL/min/mg. For the same molecule, the Km (not read [5]) was 748 µM, the Vmax (not read [5]) was 0.00598 µmol/min/mg and the Vmax/Km (not read [5]) was 8 µL/min/mg. For the same molecule, the Km (not read [6]) was 101 µM, the Km (not read [7]) was 57.8 µM and the Vmax (not read [7]) was 0.000225 µmol/min/mg. For the same molecule, the Vmax/Km (not read [7]) was 4 µL/min/mg, the Km (not read [8]) was 56.2 µM and the Vmax (not read [8]) was 0.00124 µmol/min/mg. The Vmax/Km (not read [8]) was 22 µL/min/mg.
